Assay results taken from patent publication US8252822B2, “Heterocyclic compounds and uses as anticancer agents” (Acea Biosciences, Inc., priority 2007, dated 2012).
Where two headings read alike, the source gives them in different places.

Key:
[1] = tested on: KB200; assay: RT-CES cell proliferation inhibition, KB200; type: cell-based; details: Homo sapiens
Text: (§1) The biological activity of compounds disclosed herein was monitored and profiled using the Real-Time Cell Electronic Sensing (RT-CES®) system from ACEA Biosciences, Inc. The RT-CES system utilizes cell-substrate impedance technology to monitor cellular behavior inside tissue culture wells in a microtiter plate format. The technology features in the integration of molecular and cell biology with microelectronics and is based on the electronic detection of biological assay process. The details of this cell electronic sensing technology and associated devices, systems and methods of use as described in U.S. provisional application No. 60/379,749, filed on Jul. […]
(§2) For measurement of cell-substrate or cell-electrode impedance using RT-CES technology, microelectrodes having appropriate geometries are fabricated onto the bottom surfaces of microtiter plate or similar device, facing into the wells. […] When there are changes to the biological status of the cells analogue electronic readout signals are measured automatically and in real time, and are converted to digital signals for processing and for analysis. In a RT-CES system, a cell index (arbitrary representation of change in impedance) is automatically derived and provided based on measured electrode impedance values. […]
(§3) To quantify cell status based on the measured cell-electrode impedance, a parameter termed Cell Index is derived. […]

[2] = tested on: HepG2; assay: RT-CES cell proliferation inhibition, HepG2; type: cell-based; details: Homo sapiens
Text: as §1, §2, §3

[3] = tested on: ST30; assay: RT-CES cell proliferation inhibition, ST30; type: cell-based; details: Homo sapiens
Text: as §1, §2, §3

[4] = tested on: MDCK; assay: RT-CES cell proliferation inhibition, MDCK; type: cell-based, Monkey; details: Canis lupus familiaris
Text: as §1, §2, §3

[5] = tested on: Jurkat; assay: RT-CES cell proliferation inhibition, Jurkat; type: cell-based; details: Homo sapiens, 24 hrs
Text: as §1, §2, §3

[6] = tested on: Bcap37; assay: RT-CES cell proliferation inhibition, Bcap37; type: cell-based; details: Homo sapiens
Text: as §1, §2, §3

[7] = tested on: PC3; assay: RT-CES cell proliferation inhibition, PC3; type: cell-based; details: Homo sapiens, PC-3
Text: as §1, §2, §3

[8] = tested on: HT29; assay: RT-CES cell proliferation inhibition, HT29; type: cell-based; details: Homo sapiens, HT-29
Text: as §1, §2, §3

[9] = tested on: SH-SY5Y; assay: RT-CES cell proliferation inhibition, SH-SY5Y; type: cell-based; details: Homo sapiens
Text: as §1, §2, §3

[10] = tested on: H460; assay: RT-CES cell proliferation inhibition, H460; type: cell-based; details: Homo sapiens, NCI-H460
Text: as §1, §2, §3

- IC50 ([2]; HepG2, 24 hrs, read-out: IC50 (24 hr)): > 200 nM
- IC50 ([2]; HepG2, 48 hrs, read-out: IC50 (48 hr)): > 200 nM
- IC50 [5]: 45.4 nM
- IC50 ([7]; PC3, 24 hrs, read-out: IC50 (24 hr)): 10.9 nM
- IC50 ([7]; PC3, 48 hrs, read-out: IC50 (48 hr)): 5.37 nM
- IC50 ([8]; HT29, 24 hrs, read-out: IC50 (24 hr)): 53.6 nM
- IC50 ([8]; HT29, 48 hrs, read-out: IC50 (48 hr)): 58.8 nM
- IC50 ([9]; 24 hrs, read-out: IC50 (24 hr)): 13.4 nM
- IC50 ([9]; 48 hrs, read-out: IC50 (48 hr)): 6.7 nM
- IC50 ([10]; H460, 24 hrs after compound treatment, read-out: IC50 (24 hr)): 12.3 nM
- IC50 ([10]; H460, 48 hrs after compound treatment, read-out: IC50 (48 hr)): 16 nM
Structure (SMILES): Br.CCOc1ccc(Nc2nc(-c3c(C)nc4sccn34)cs2)cc1 [Compound 27, 2-(4-ethoxyphenyl)amino-4-(6-methylimidazo[2,1-b]thiazol-5-yl)thiazole]
- IC50 ([1]; KB200, 24 hrs, read-out: IC50 (24 hr)): 12.1 nM
- IC50 ([1]; KB200, 48 hrs, read-out: IC50 (48 hr)): 4.28 nM
- IC50 ([3]; ST30, 24 hrs, read-out: IC50 (24 hr)): 38.8 nM
- IC50 ([3]; ST30, 48 hrs, read-out: IC50 (48 hr)): 42.4 nM
- IC50 ([4]; 24 hrs, read-out: IC50 (24 hr)): 930 nM
- IC50 ([4]; 48 hrs, read-out: IC50 (48 hr)): 1870 nM
- IC50 ([6]; Bcap37, 24 hrs, read-out: IC50 (24 hr)): 27.3 nM
- IC50 ([6]; Bcap37, 48 hrs, read-out: IC50 (48 hr)): 26 nM
